From ChEMBL document CHEMBL5154887, “Novel CRBN-Recruiting Proteolysis-Targeting Chimeras as Degraders of Stimulator of Interferon Genes with In Vivo Anti-Inflammatory Efficacy” (J Med Chem, 2022) come the findings set out here.

For data set [1], the target named is T1, Protein cereblon/Stimulator of interferon genes protein (Homo sapiens, UniProt Q96SW2+Q86WV6). As to the kind of experiment: Protac activity at CRBN/STING in human THP-1 cells assessed as increase in STING degradation at 10 uM incubated for 48 hrs by Western blot analysis relative to control. It is filed as cell-based. A general note: Immunoblotting shows a protein as a band on a membrane.
Target sequence in this assay (Q86WV6 whole entry, looked up): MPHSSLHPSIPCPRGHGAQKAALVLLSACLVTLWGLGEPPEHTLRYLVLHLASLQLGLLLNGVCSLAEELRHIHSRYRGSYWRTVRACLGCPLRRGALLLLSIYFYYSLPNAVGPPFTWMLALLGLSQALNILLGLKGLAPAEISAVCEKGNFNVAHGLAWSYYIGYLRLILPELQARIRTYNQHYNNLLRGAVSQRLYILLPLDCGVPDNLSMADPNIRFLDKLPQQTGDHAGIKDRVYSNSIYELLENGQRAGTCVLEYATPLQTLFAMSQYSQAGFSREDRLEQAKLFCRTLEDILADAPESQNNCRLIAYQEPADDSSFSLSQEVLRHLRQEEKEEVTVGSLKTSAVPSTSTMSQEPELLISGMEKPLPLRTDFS
Target sequence in this assay (Q96SW2 whole entry, looked up): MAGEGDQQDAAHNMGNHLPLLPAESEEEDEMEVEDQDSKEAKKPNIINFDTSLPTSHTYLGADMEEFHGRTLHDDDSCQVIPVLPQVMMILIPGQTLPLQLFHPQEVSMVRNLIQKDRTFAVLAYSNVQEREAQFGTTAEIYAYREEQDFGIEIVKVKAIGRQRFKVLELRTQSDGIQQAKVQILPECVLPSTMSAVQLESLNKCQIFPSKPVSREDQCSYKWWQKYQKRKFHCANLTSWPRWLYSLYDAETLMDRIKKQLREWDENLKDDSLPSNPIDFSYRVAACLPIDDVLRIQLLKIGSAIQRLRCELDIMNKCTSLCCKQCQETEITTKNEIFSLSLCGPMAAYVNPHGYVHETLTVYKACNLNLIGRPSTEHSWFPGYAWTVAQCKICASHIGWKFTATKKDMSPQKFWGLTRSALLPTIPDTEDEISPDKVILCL

In data set [2] the test system is L02. Description: Cytotoxicity against human L02 cells assessed as reduction in cell viability at <10 uM by MTT assay. Conditions: l02, 10 µM. It is filed as toxicity, cell-based. A general note: Formazan colour is commonly taken as a measure of viable cells.
The target of data set [3] is T1, Protein cereblon/Stimulator of interferon genes protein. As to the kind of experiment: Protac activity at CRBN/STING in human THP-1 cells assessed as increase in STING degradation incubated for 48 hrs by Western blot analysis. It counts as cell-based.
Target sequence in this assay (Q96SW2 whole entry): as the sequence (Q96SW2 whole entry, looked up) above
Target sequence in this assay (Q86WV6 whole entry): as the sequence (Q86WV6 whole entry, looked up) above
Data set [4] is described as follows: Cytotoxicity against HEK293-A cells assessed as reduction in cell viability at <10 uM by MTT assay. It is filed as toxicity, cell-based. Conditions: human.
Data set [5] can be described thus: Cytotoxicity against mouse C17.2 cells assessed as reduction in cell viability at <10 uM by MTT assay. It counts as toxicity, cell-based. Conditions: c17.2, 10 µM.

By DC50 is commonly meant the midpoint of the concentration-degradation curve.

Turning to `O=C(/C=C/C(=O)Nc1ccc(NC(=O)c2ccc([N+](=O)[O-])o2)cc1)NCCCCCNc1cccc2c1C(=O)N(C1CCC(=O)NC1=O)C2=O` (stereo not given), the Activity in data set [1] is 62%; in data set [2], “Non-Toxic”; in data set [4], “Non-Toxic”; in data set [5] it was “Non-Toxic”. The DC50 in data set [3] was 9.2 µM.
On to `O=C(/C=C/C(=O)Nc1ccc(NC(=O)c2ccc([N+](=O)[O-])o2)cc1)NCCCCNc1cccc2c1C(=O)N(C1CCC(=O)NC1=O)C2=O` (stereo not given), for which the Activity in data set [1] is 22%; in data set [2], “Non-Toxic”; in data set [4], “Non-Toxic”; in data set [5], “Non-Toxic”. The DC50 in data set [3] is more than 10 µM.
